Measured values published in US20250186432A1, “SPLEEN TYROSINE KINASE INHIBITOR, COMPOSITION, AND METHODS OF USE” (PURDUE RESEARCH FOUNDATION, priority 2022, published 2025).
Read-outs that look alike come from different tables or passages of the source.

What was measured:
HGFR = HGFR (Homo sapiens, UniProt P08581); test: ADP-Glo kinase inhibition assay, HGFR; type: biochemical; details: for IC50: ADP-Glo
Syk = Syk (Homo sapiens, UniProt P43405); test: ADP-Glo kinase inhibition assay, Syk
IGF1R = IGF1R (Homo sapiens, UniProt P08069); test: ADP-Glo kinase inhibition assay, IGF1R
Sequence of IGF1R (P08069 31-1367): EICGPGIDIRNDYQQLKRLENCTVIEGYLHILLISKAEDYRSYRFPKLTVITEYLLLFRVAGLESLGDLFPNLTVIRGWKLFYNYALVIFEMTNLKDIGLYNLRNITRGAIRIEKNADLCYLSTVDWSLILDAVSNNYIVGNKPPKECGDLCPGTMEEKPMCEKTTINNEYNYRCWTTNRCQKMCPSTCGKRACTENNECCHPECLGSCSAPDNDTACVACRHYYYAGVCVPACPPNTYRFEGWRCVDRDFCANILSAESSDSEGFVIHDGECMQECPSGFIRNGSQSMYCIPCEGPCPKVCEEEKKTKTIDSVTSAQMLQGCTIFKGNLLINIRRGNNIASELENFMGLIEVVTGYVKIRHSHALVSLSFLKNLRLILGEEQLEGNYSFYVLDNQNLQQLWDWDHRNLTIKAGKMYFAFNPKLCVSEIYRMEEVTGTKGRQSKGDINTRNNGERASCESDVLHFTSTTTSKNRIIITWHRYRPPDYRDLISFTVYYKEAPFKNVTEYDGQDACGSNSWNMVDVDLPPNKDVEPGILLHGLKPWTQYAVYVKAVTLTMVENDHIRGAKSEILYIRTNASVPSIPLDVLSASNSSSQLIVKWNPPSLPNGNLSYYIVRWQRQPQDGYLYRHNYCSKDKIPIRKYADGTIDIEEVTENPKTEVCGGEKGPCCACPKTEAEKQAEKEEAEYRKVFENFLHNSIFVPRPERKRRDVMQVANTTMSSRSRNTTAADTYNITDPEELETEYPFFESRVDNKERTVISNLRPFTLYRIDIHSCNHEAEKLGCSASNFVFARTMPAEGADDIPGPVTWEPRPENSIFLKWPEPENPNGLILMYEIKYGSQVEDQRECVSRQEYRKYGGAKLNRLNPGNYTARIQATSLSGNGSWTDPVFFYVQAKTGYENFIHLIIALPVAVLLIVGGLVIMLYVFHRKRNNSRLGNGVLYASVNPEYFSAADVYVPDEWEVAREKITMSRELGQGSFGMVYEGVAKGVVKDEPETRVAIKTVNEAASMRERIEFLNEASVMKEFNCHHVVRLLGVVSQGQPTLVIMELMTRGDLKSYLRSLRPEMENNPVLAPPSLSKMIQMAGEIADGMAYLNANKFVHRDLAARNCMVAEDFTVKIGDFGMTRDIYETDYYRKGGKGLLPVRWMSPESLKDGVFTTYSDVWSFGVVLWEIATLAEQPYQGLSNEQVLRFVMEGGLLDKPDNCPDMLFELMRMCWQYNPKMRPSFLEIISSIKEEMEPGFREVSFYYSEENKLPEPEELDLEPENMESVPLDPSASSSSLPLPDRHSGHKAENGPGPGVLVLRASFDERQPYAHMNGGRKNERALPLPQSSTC

VEGFR [1] = target: VEGFR (Homo sapiens, UniProt P35916); test: ADP-Glo kinase inhibition assay, VEGFR; type: biochemical; details: ADP-Glo
Sequence of VEGFR (Homo sapiens, UniProt P35916) (P35916 whole entry): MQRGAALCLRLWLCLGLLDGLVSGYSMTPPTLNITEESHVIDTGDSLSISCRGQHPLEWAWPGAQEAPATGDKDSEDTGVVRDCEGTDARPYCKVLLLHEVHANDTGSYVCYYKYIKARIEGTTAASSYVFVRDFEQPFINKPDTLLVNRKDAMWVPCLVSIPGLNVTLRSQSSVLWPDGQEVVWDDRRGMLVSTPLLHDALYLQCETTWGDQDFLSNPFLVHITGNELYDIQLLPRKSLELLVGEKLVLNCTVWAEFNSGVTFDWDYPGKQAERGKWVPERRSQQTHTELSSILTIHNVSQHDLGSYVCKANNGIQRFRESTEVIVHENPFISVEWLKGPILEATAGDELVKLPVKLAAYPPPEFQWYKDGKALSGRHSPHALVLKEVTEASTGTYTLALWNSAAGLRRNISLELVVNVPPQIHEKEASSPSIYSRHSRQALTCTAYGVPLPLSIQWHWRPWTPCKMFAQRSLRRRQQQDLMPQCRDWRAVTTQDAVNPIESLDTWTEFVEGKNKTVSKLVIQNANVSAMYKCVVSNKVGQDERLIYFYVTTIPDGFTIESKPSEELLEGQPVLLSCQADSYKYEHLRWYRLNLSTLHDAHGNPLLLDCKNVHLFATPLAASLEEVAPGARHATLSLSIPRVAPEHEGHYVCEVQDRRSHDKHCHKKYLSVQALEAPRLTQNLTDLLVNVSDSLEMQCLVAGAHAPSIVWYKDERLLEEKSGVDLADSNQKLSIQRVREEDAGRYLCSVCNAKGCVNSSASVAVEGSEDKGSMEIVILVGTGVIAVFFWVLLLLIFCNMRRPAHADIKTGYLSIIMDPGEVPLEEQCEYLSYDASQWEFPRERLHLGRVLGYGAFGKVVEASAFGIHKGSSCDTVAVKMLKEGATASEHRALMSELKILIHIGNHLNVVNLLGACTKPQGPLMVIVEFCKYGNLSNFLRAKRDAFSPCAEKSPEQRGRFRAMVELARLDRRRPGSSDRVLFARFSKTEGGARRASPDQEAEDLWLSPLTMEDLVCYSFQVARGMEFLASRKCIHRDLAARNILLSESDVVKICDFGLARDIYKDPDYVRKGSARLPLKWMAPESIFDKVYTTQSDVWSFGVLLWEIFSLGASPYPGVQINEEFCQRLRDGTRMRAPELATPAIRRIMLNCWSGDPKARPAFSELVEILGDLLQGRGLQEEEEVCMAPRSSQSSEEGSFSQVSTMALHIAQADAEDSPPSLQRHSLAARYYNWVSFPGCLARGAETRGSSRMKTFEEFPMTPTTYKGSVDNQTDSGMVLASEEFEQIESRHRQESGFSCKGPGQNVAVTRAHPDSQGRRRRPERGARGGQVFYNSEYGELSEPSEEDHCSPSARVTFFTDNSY

FGFR3 = FGFR3 (Homo sapiens, UniProt P22607); test: ADP-Glo kinase inhibition assay, FGFR3
Sequence of FGFR3 (P22607 23-806): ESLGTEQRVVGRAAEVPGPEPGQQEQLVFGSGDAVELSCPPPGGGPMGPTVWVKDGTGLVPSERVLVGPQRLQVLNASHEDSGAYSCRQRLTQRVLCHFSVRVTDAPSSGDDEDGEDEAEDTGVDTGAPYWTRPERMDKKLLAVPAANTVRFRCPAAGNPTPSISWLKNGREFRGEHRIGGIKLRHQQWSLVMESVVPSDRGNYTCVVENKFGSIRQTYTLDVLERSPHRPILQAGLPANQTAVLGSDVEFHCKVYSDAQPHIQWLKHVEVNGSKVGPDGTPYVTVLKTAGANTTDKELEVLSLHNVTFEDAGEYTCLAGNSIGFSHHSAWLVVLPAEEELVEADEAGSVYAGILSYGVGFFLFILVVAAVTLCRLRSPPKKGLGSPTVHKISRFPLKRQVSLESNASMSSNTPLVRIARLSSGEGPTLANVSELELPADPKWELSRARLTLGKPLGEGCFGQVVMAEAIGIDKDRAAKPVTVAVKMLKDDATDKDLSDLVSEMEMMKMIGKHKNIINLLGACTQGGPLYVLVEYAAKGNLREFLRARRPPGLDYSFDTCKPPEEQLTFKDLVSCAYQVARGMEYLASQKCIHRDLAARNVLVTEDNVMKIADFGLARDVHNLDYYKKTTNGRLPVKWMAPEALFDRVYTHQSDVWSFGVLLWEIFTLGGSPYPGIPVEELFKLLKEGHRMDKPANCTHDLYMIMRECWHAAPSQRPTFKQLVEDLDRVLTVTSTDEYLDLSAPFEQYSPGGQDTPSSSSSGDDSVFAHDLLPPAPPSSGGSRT

EGFR = EGFR (Homo sapiens, UniProt P00533); test: ADP-Glo kinase inhibition assay, EGFR; type: biochemical; details: for IC50: ADP-Glo
[2] = test system: Band 3 tyrosine phosphorylation; test: Inhibition of Band 3 tyrosine phosphorylation (cellular potency); type: cell-based, human
LogP = type: physicochemical
Description: The compound can have a CLogP value between about 2.0 and about 5.0 (e.g., between 2.0 and about 5.0, about 2.0 and 5.0, or 2.0 and 5.0). In certain embodiments, e.g., compound S1213, the compound has a CLogP value of between about 1.0 and about 2.0 (e.g., between 1.0 and about 2.0, about 1.0 and 2.0, or 1.0 and 2.0). The term “cLogP” refers to a calculated partition coefficient which in the physical sciences, is the ratio of concentrations of a compound in a mixture of the two immiscible phases at equilibrium. These coefficients are a measure of the difference in solubility of the compound in these two phases. In general, this is a measure of hydrophobicity of the compound as one phase is aqueous (traditionally water) and the other is hydrophobic (traditionally octanol). Higher values indicate greater partitioning of the compound into the hydrophobic phase and support increased hydrophobicity.

VEGFR [3] = test: ADP-Glo kinase inhibition assay, VEGFR; type: biochemical; details: selectivity ratio
[4] = Absolute oral bioavailability; details: in vivo, read-out: Absolute oral bioavailability F
[5] = pTyr, read-out: Inhibition of Band 3 Tyrosine Phosphorylation EC50, pTyr
[6] = Homo sapiens, read-out: Inhibition of Band 3 Tyrosine Phosphorylation EC50, pTyr
[7] = Homo sapiens, read-out: Inhibition of Band 3 Tyrosine Phosphorylation EC50, pTyr8
[8] = Homo sapiens, read-out: Inhibition of Band 3 Tyrosine Phosphorylation EC50, pTyr359

Sequence of HGFR (P08581 25-1390): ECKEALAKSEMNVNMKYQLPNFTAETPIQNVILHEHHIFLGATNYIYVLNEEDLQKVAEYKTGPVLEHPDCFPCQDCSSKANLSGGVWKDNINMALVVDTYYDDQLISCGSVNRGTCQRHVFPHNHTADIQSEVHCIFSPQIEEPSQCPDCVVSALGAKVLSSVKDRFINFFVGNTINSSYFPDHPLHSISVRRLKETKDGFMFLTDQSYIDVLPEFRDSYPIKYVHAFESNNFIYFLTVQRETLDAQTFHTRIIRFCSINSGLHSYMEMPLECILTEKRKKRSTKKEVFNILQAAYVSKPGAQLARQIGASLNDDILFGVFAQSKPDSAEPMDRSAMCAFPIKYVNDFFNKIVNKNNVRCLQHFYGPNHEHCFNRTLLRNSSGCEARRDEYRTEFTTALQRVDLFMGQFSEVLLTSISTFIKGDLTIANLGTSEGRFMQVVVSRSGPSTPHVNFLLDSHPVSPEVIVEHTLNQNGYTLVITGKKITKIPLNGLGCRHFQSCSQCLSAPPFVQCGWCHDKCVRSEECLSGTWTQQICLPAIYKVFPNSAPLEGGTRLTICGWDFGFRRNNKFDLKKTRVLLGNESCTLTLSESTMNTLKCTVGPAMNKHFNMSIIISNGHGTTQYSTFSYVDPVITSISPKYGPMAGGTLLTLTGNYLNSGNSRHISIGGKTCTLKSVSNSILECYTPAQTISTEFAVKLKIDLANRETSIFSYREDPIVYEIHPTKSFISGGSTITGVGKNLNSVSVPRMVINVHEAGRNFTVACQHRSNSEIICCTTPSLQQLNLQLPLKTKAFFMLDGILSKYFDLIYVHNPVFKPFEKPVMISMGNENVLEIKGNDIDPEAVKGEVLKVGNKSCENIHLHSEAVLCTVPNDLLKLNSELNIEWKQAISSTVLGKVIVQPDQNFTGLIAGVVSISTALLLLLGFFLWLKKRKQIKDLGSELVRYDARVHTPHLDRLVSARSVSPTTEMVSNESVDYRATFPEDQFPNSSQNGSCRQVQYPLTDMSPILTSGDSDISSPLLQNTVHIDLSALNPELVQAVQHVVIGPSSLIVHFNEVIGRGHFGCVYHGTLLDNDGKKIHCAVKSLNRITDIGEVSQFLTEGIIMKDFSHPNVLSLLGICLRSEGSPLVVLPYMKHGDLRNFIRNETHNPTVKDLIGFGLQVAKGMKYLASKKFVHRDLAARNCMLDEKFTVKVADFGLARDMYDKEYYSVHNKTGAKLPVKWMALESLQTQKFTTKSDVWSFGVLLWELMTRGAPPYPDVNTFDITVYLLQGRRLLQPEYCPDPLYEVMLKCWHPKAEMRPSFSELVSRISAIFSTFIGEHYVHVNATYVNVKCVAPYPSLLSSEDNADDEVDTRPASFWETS

Compound	IC50 (HGFR)	IC50 (Syk)	IC50 (IGF1R)	IC50 (VEGFR [1])	IC50 (FGFR3)	IC50 (EGFR)	also measured
CCc1cc2c(cc1N1CCC(N3CCOCC3)CC1)C(C)(C)c1[nH]c3cc(C#N)ccc3c1C2=O [Alectinib]	1.03 µM	37.1 µM	1.01 µM	0.335 µM	1.81 µM	–	–
Cn1cc(-c2cc3c(N4CCN(c5ncc([C@@](C)(N)c6ccc(F)cc6)cn5)CC4)ncnn3c2)cn1 [Avapritinib]	25 µM	0.28 µM	> 100 µM	2.58 µM	1.02 µM	8.73 µM	–
CCS(=O)(=O)N1CCN(c2ccc(Nc3ncc(C(N)=O)c(NC4CC4)n3)cc2)CC1 [Cerdulatinib]	–	–	–	–	–	–	IC50 (Syk; read-out: IC50 Syk, ADP-Glo): 0.032 µM
COc1cc(Nc2ncc(F)c(Nc3ccc4c(n3)NC(=O)C(C)(C)O4)n2)cc(OC)c1OC [Compound R406]	–	–	–	–	–	–	EC50 [2, 5]: 5 µM
COc1ccc(Nc2nc(-c3ccc4c(CN5CC(O)C5)c[nH]c4c3)cn3ccnc23)cc1OC [Compound S970, 1-((6-(8-((3,4-dimethoxyphenyl)amino)imidazo[1,2-a]pyrazin-6-yl)-1H-indol-3-yl)methyl)azetidin-3-ol]	–	0.177 µM	–	4 µM	–	8 µM	Ratio of IC50 SYK/Kinases: HGFR (HGFR; selectivity ratio): 220; Ratio of IC50 SYK/Kinases: SYK (Syk; selectivity ratio): 1; Ratio of IC50 SYK/Kinases: IGF1R (IGF1R; selectivity ratio): 55; LogP (LogP): 2.29; Ratio of IC50 SYK/Kinases: VEGFR3 (VEGFR [3]): 22; Ratio of IC50 SYK/Kinases: EGFR (EGFR; selectivity ratio): 44; EC50 [2, 6]: 1.5 µM; EC50 [2, 7]: 4.4 µM; EC50 [2, 8]: 10 µM; Ratio of IC50 SYK/Kinases: FGF3R (FGFR3; selectivity ratio): 55
COc1ccc(Nc2nc(-c3ccc4c(CN5CC(O)C5)cn(CO)c4c3)cn3ccnc23)cc1OC [Compound S970D]	> 40 µM	0.08 µM	> 5 µM	2.1 µM	–	0.65 µM	LogP (LogP): 2.28; EC50 [2, 6]: 0.716 µM; EC50 [2, 7]: 0.572 µM
COc1ccc(Nc2nc(-c3ccc4c(CN5CC(O)C5)c[nH]c4c3)cnc2C(N)=O)cc1OC [Compound S1115, 3-((3,4,-methoxyphenyl)amino)-5-(3-((3-hydroxyazetidin-1-yl)methyl)-1H-indol-6-yl)pyrazine-2-carboxamide]	> 40 µM	0.0022 µM	0.9 µM	0.075 µM	–	0.14 µM	LogP (LogP): 1.42; bioavailability [4]: 2%; EC50 [2, 6]: 0.226 µM; EC50 [2, 7]: 0.262 µM; EC50 [2, 8]: 1.59 µM
COc1ccc(Nc2nc(-c3ccc4c(CN5CC(N)C5)c[nH]c4c3)cnc2C(N)=O)cc1OC [Compound S1213]	> 20 µM	0.025 µM	> 20 µM	> 2 µM	> 3 µM	25 µM	LogP (LogP): 1.04; bioavailability [4]: 2%; EC50 [2, 6]: 1.5 µM
NC(=O)c1ncc(-c2ccc3c(CN4CC(N)C4)c[nH]c3c2)nc1Nc1cccc(-n2nccn2)c1 [Compound S1214]	–	0.53 µM	–	–	–	–	–
COc1ccc(Nc2nc(-c3ccc4c(CN5CC(C(=O)O)C5)c[nH]c4c3)cnc2C(N)=O)cc1OC [Compound S1219]	–	0.05 µM	–	–	–	–	LogP (LogP): 1.54; bioavailability [4]: 1.1%
COc1ccc(Nc2nc(-c3ccc4c(CCCO)cn(C)c4c3)cnc2C(N)=O)cc1OC [Compound S2053]	–	0.147 µM	> 10 µM	> 10 µM	> 5 µM	4.3 µM	LogP (LogP): 2.63; bioavailability [4]: 8%
COc1ccc(Nc2nc(-c3ccc4c(CCCN)cn(C)c4c3)cnc2C(N)=O)cc1OC [Compound S2054]	–	0.68 µM	–	–	–	–	–
c1cn2cc(-c3ccc4cn[nH]c4c3)nc(Nc3ccc(N4CCOCC4)cc3)c2n1 [Entospletinib]	–	–	0.813 µM	0.244 µM	9.9 µM	–	EC50 [2, 5]: 3 µM
CN1CCN(c2ccc(C(=O)Nc3n[nH]c4ccc(Cc5cc(F)cc(F)c5)cc34)c(NC3CCOCC3)c2)CC1 [Entrectinib]	–	–	–	0.441 µM	0.246 µM	–	–
COc1cc(Nc2ncc(F)c(Nc3ccc4c(n3)N(COP(=O)(O)O)C(=O)C(C)(C)O4)n2)cc(OC)c1OC [Fostamtinib]	1.57 µM	–	0.638 µM	0.0187 µM	0.0914 µM	0.342 µM	–
N#CCC1CCN(c2nc(Nc3ccc(N4CCC(O)CC4)cc3)c3c(=O)[nH]ncc3n2)CC1 [Gusacitinib]	–	0.005 to 0.046 µM	–	–	–	–	–
Nc1cncc(-c2cn3ccnc3c(Nc3ccc(N4CCN(C5COC5)CC4)cc3)n2)n1 [Lanraplenib]	> 100 µM	–	2.43 µM	0.778 µM	69.4 µM	4.27 µM	EC50 [2, 6]: 3 µM
O=C(Nc1cnn2ccc(N3CCC[C@@H]3c3cc(F)ccc3F)nc12)N1CC[C@H](O)C1 [Larotrectinib]	> 100 µM	23.6 µM	> 100 µM	19.6 µM	1.98 µM	6.37 µM	–
NC(=O)c1cnc(N[C@@H]2CCCC[C@@H]2N)nc1Nc1cccc(-n2nccn2)c1 [PRT062067]	–	–	–	–	–	–	EC50 [2, 5]: 0.3 µM
Oc1cc(O)cc(/C=C/c2ccc(O)c(O)c2)c1 [Piceatannal]	35 µM	–	–	5 µM	–	17.6 µM	IC50 (IGF1R; read-out: IC50 IGF1R, ADP-Glo): 21.5 µM; IC50 (FGFR3; read-out: IC50 FGFR3, ADP-Glo): 24.7 µM
CCn1c(=O)c(-c2cc(NC(=O)Nc3ccccc3)c(F)cc2Br)cc2cnc(NC)cc21 [Ripretinib]	3.02 µM	13.2 µM	> 100 µM	0.00024 µM	0.0844 µM	9.93 µM	–
Cc1nn(-c2ccnc(Nc3ccc(-c4csc5c(=O)cc(N6CCOCC6)oc45)cc3)n2)cc1CN1CCC1 [SRX3207]	–	–	–	–	–	–	IC50 (Syk; read-out: IC50 Syk, ADP-Glo): 0.0107 µM
NCCNc1ncc(C(N)=O)c(Nc2cccc(C(F)(F)F)c2)n1 [Syk II]	69.4 µM	–	–	4.21 µM	–	27 µM	IC50 (Syk; read-out: IC50 Syk, ADP-Glo): 0.0703 µM; IC50 (IGF1R; read-out: IC50 IGF1R, ADP-Glo): 13.5 µM; IC50 (FGFR3; read-out: IC50 FGFR3, ADP-Glo): 36.9 µM
COc1ccc(-c2cc3nccn3c(Nc3ncccc3C(N)=O)n2)cc1OC [Syk IV]	–	–	–	0.0912 µM	–	–	–
NC(=O)c1nnc(N[C@@H]2CCCC[C@@H]2N)nc1Nc1cccc2cc[nH]c12 [Syk-IN-1]	–	–	–	–	–	–	IC50 (Syk; read-out: IC50 Syk, ADP-Glo): 0.031 µM
Cc1cc(Nc2nccc(C)n2)cc(-c2cnc([C@@]3(O)CC[C@H](C(=O)O)C(C)(C)C3)s2)c1 [Syk-IN-3]	–	–	–	–	–	–	IC50 (Syk; read-out: IC50 Syk, ADP-Glo): 0.001 µM
Cn1cc(-c2nc(N[C@@H]3CCCC[C@@H]3N)c(F)c3c2C(=O)NC3)cn1 [TAK-659]	3.16 µM	–	–	0.15 µM	–	27.6 µM	IC50 (FGFR3; read-out: IC50 FGFR3, ADP-Glo): 0.019 µM
Cc1cc(Nc2nc(N[C@@H]3CCOC[C@@H]3N)nnc2C(N)=O)cc2cn(C(C)(C)C)nc12 [TAS05567]	–	–	–	–	–	–	IC50 (Syk; read-out: IC50 Syk, ADP-Glo): 0.00037 µM
Cc1cc(Nc2ncnc3ccc(NC4=NC(C)(C)CO4)cc23)ccc1Oc1ccn2ncnc2c1 [Tucatinib]	11.1 µM	4.93 µM	> 100 µM	1.96 µM	66.5 µM	0.0388 µM	–
